Source: US20060223756A1, “Endothelial cell specifically binding peptides” (priority 2002, published 2006)

Legend:
[1] = tested on: primary human umbilical vein endothelial cells (HUVEC); experiment: In vitro transduction analysis (β-galactosidase, X-gal stain) on HUVEC; assay type: cell-based
Method: (§1) S8 cells are A549 cells stably transfected with adenoviral E1 and E2a genes under separate dexamethasone-inducible promoters (Gorziglia et al., 1996). S8 cells are cultured in IMEM (Biofluids, Rockville, Md.) with 10% heat inactivated fetal bovine serum (HIFBS). For virus production, the cells are cultured with 0.3 uM dexamethasone to induce the expression of E1 and E2a genes. H460 cells are a human non-small cell lung carcinoma (ATCC, Manassas, Va.) and are cultured in RPMI Medium 1640 (Life Technologies, Gaithersburg, Md.) with 10% HIFBS. PC3 cells are a human prostate carcinoma cell line (ATCC) and are cultured in RPMI Medium 1640 with 10% HIFBS. HeLa cells are a human cervical carcinoma cell line (ATCC) and are cultured in DMEM with 10% HIFBS. Primary human endothelial cells, in particular Human Umbilical Vein Endothelial Cells (HUVECs) are obtained from the Clonetics Corporation (Walkerville, Md.: AC-7018). The cells are cultured in the recommended medium.
(§2) The transduction efficiency of Av3nBgPD1 is surveyed using primary human umbilical vein endothelial cells (HUVEC) and on three human carcinoma cell lines including HeLa, PC3, and H460 cells. […] The percentage of transduction is determined by light microscopy by counting the number of positively transduced blue cells per field as described previously (Stevenson, et. al, 1997).

PC3 cells = experiment: In vitro transduction analysis (β-galactosidase, X-gal stain) on PC3; assay type: cell-based, human
Method: as §1, §2

HeLa cells = experiment: In vitro transduction analysis (β-galactosidase, X-gal stain) on HeLa; assay type: cell-based, human
Method: as §1, §2

Sequence: CPDLHHHMC (Artificial sequence derived from human and animal adenovirus peptide sequences for binding to endothelial cell surface molecules) [PD1]
- transduction compared with Av3nBg control, in words [1]: enhances transduction
- transduction compared with Av3nBg control, in words (PC3 cells): offered no advantage
- transduction compared with Av3nBg control, in words (HeLa cells): offered no advantage
